Molecular target: T1, STAT6 (Homo sapiens, UniProt P42226)
T1 construct: stably transfected HaCaT keratinocyte cell line, which expresses NanoLuc luciferase reporter gene under the transcriptional control of the STAT6 responsive promoter; endogenous in cells; host or cells: HaCaT keratinocyte reporter cell line (stably transfected with a NanoLuc reporter)
T1 sequence (P42226 1-847): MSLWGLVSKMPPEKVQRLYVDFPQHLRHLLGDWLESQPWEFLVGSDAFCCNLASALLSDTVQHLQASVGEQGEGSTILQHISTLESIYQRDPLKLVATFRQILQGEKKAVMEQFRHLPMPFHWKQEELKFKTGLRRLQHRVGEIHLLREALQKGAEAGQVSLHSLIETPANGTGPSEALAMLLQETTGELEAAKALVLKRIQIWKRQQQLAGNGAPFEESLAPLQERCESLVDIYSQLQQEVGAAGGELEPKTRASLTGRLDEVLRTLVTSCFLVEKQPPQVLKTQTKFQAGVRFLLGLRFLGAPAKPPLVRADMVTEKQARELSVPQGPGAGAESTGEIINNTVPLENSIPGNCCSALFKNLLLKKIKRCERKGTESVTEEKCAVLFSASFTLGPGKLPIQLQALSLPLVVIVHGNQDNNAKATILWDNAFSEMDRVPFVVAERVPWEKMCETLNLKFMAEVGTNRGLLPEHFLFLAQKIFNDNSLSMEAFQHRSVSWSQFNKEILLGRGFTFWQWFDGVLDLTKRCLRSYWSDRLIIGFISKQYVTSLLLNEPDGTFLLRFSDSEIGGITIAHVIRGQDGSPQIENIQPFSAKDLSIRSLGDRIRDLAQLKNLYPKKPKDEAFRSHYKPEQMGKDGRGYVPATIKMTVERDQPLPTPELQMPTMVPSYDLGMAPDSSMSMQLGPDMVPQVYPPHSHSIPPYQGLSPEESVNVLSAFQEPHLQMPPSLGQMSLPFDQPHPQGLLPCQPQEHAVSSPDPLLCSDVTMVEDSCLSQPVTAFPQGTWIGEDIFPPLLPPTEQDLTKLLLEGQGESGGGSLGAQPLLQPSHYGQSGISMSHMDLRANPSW
Test: STAT6 Reporter Luciferase Assay (IL-13 stimulated HaCaT keratinocyte NanoLuc reporter cells)
Assay type: cell-based
Conditions: IL-13 stimulated HaCaT STAT6 NanoLuc reporter cells; read-out: Reporter EC50
How it was run: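 Compounds were tested as 11-point, 4-fold series in duplicate, applied for 2 h at 37 °C in low-serum (2% FBS) DMEM. The cells were a stable HaCaT line with NanoLuc under a STAT6-responsive IL-13Ra2 promoter. After 4 h with 0.12 nM IL-13, Nano-Glo luminescence was measured.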

Row | EC50 [nM] | SMILES
1 | 6 | Cc1nc2c(s1)CN(C(=O)c1ccc(N3CCc4c(c(C(=O)NCc5ccc(NC(=O)N(C)C)cc5)nn4C(C)C)C3)nc1)CC2 [Example 365, N-(4-(3,3-dimethylureido)benzyl)-1-isopropyl-5-(5-(2-methyl-4,5,6,7-tetrahydrothiazolo[5,4-c]pyridine-5-carbonyl)pyridin-2-yl)-4,5,6,7-tetrahydro-1H-pyrazolo[4,3-c]pyridine-3-carboxamide]
2 | 29 | CC(C)n1nc(C(=O)NCc2ccc(NC(=O)N(C)C)cc2)c2c1CCN(c1ccc(C(=O)N3CCc4nccnc4C3)cn1)C2 [Example 366, N-(4-(3,3-dimethylureido)benzyl)-1-isopropyl-5-(5-(5,6,7,8-tetrahydropyrido[3,4-b]pyrazine-6-carbonyl)pyridin-2-yl)-4,5,6,7-tetrahydro-1H-pyrazolo[4,3-c]pyridine-3-carboxamide]
3 | 72 | CC(C)n1nc(C(=O)NCc2ccc(NC(=O)N(C)C)cc2)c2c1CCN(c1ccc(C(=O)N3CCn4ncnc4C3)cn1)C2 [Example 367, N-(4-(3,3-dimethylureido)benzyl)-1-isopropyl-5-(5-(5,6,7,8-tetrahydro-[1,2,4]triazolo[1,5-a]pyrazine-7-carbonyl)pyridin-2-yl)-4,5,6,7-tetrahydro-1H-pyrazolo[4,3-c]pyridine-3-carboxamide]
4 | 5 | Cc1cc(C)c2c(n1)CN(C(=O)c1ccc(N3CCc4c(c(C(=O)NCc5ccc(NC(=O)N(C)C)cc5)nn4C(C)C)C3)nc1)C2 [Example 368, 5-(5-(2,4-dimethyl-6,7-dihydro-5H-pyrrolo[3,4-b]pyridine-6-carbonyl)pyridin-2-yl)-N-(4-(3,3-dimethylureido)benzyl)-1-isopropyl-4,5,6,7-tetrahydro-1H-pyrazolo[4,3-c]pyridine-3-carboxamide]
5 | 38 | Cc1nn(C)c2c1CN(C(=O)c1ccc(N3CCc4c(c(C(=O)NCc5ccc(NC(=O)N(C)C)cc5)nn4C(C)C)C3)nc1)CC2 [Example 369, 5-(5-(1,3-dimethyl-4,5,6,7-tetrahydro-1H-pyrazolo[4,3-c]pyridine-5-carbonyl)pyridin-2-yl)-N-(4-(3,3-dimethylureido)benzyl)-1-isopropyl-4,5,6,7-tetrahydro-1H-pyrazolo[4,3-c]pyridine-3-carboxamide]
6 | 11 | CC(C)n1nc(C(=O)NCc2ccc(NC(=O)N(C)C)cc2)c2c1CCN(c1ccc(C(=O)N3Cc4cnc(C5CC5)nc4C3)cn1)C2 [Example 370, 5-(5-(2-cyclopropyl-6,7-dihydro-5H-pyrrolo[3,4-d]pyrimidine-6-carbonyl)pyridin-2-yl)-N-(4-(3,3-dimethylureido)benzyl)-1-isopropyl-4,5,6,7-tetrahydro-1H-pyrazolo[4,3-c]pyridine-3-carboxamide]
7 | 50 | CC(C)n1nc(C(=O)NCc2ccc(NC(=O)N(C)C)cc2)c2c1CCN(c1ccc(C(=O)N3CCc4cnn(C)c4C3)cn1)C2 [Example 371, N-(4-(3,3-dimethylureido)benzyl)-1-isopropyl-5-(5-(1-methyl-4,5,6,7-tetrahydro-1H-pyrazolo[3,4-c]pyridine-6-carbonyl)pyridin-2-yl)-4,5,6,7-tetrahydro-1H-pyrazolo[4,3-c]pyridine-3-carboxamide]
8 | 59 | CC(C)n1nc(C(=O)NCc2ccc(NC(=O)N(C)C)cc2)c2c1CCN(c1ccc(C(=O)N3CCn4ccnc4C3)cn1)C2 [Example 372, N-(4-(3,3-dimethylureido)benzyl)-1-isopropyl-5-(5-(5,6,7,8-tetrahydroimidazo[1,2-a]pyrazine-7-carbonyl)pyridin-2-yl)-4,5,6,7-tetrahydro-1H-pyrazolo[4,3-c]pyridine-3-carboxamide]
9 | 540 | Cc1nnc2n1CCN(C(=O)c1ccc(N3CCc4c(c(C(=O)NCc5ccc(NC(=O)N(C)C)cc5)nn4C(C)C)C3)nc1)C2 [Example 373, N-(4-(3,3-dimethylureido)benzyl)-1-isopropyl-5-(5-(3-methyl-5,6,7,8-tetrahydro-[1,2,4]triazolo[4,3-a]pyrazine-7-carbonyl)pyridin-2-yl)-4,5,6,7-tetrahydro-1H-pyrazolo[4,3-c]pyridine-3-carboxamide]
10 | 14 | CC(C)n1nc(C(=O)NCc2ccc(NC(=O)N(C)C)cc2)c2c1CCN(c1ccc(C(=O)N3CCc4ncsc4C3)cn1)C2 [Example 374, N-(4-(3,3-dimethylureido)benzyl)-1-isopropyl-5-(5-(4,5,6,7-tetrahydrothiazolo[5,4-c]pyridine-5-carbonyl)pyridin-2-yl)-4,5,6,7-tetrahydro-1H-pyrazolo[4,3-c]pyridine-3-carboxamide]
11 | 10 | CC(C)n1nc(C(=O)NCc2ccc(NC(=O)N(C)C)cc2)c2c1CCN(c1ccc(C(=O)N3CCc4ncccc4C3)cn1)C2 [Example 376, N-(4-(3,3-dimethylureido)benzyl)-1-isopropyl-5-(5-(5,6,7,8-tetrahydro-1,6-naphthyridine-6-carbonyl)pyridin-2-yl)-4,5,6,7-tetrahydro-1H-pyrazolo[4,3-c]pyridine-3-carboxamide]
12 | 21 | Cc1cc2n(n1)CCN(C(=O)c1ccc(N3CCc4c(c(C(=O)NCc5ccc(NC(=O)N(C)C)cc5)nn4C(C)C)C3)nc1)C2 [Example 377, N-(4-(3,3-dimethylureido)benzyl)-1-isopropyl-5-(5-(2-methyl-4,5,6,7-tetrahydropyrazolo[1,5-a]pyrazine-5-carbonyl)pyridin-2-yl)-4,5,6,7-tetrahydro-1H-pyrazolo[4,3-c]pyridine-3-carboxamide]
13 | 15 | CC(C)n1nc(C(=O)NCc2ccc(NC(=O)N(C)C)cc2)c2c1CCN(c1ccc(C(=O)N3Cc4ccncc4C3)cn1)C2 [Example 378, 5-(5-(2,3-dihydro-1H-pyrrolo[3,4-c]pyridine-2-carbonyl)pyridin-2-yl)-N-(4-(3,3-dimethylureido)benzyl)-1-isopropyl-4,5,6,7-tetrahydro-1H-pyrazolo[4,3-c]pyridine-3-carboxamide]
14 | 70 | CC(C)n1nc(C(=O)NCc2ccc(NC(=O)N(C)C)cc2)c2c1CCN(c1ccc(C(=O)N3CCc4ncncc4C3)cn1)C2 [Example 379, N-(4-(3,3-dimethylureido)benzyl)-1-isopropyl-5-(5-(5,6,7,8-tetrahydropyrido[4,3-d]pyrimidine-6-carbonyl)pyridin-2-yl)-4,5,6,7-tetrahydro-1H-pyrazolo[4,3-c]pyridine-3-carboxamide]
15 | 538 | CC(C)n1nc(C(=O)NCc2ccc(NC(=O)N(C)C)cc2)c2c1CCN(c1ccc(C(=O)N3CCn4cnnc4C3)cn1)C2 [Example 380, N-(4-(3,3-dimethylureido)benzyl)-1-isopropyl-5-(5-(5,6,7,8-tetrahydro-[1,2,4]triazolo[4,3-a]pyrazine-7-carbonyl)pyridin-2-yl)-4,5,6,7-tetrahydro-1H-pyrazolo[4,3-c]pyridine-3-carboxamide]
16 | 33 | Cc1c2c(nn1C)CCN(C(=O)c1ccc(N3CCc4c(c(C(=O)NCc5ccc(NC(=O)N(C)C)cc5)nn4C(C)C)C3)nc1)C2 [Example 381, 5-(5-(2,3-dimethyl-4,5,6,7-tetrahydro-2H-pyrazolo[4,3-c]pyridine-5-carbonyl)pyridin-2-yl)-N-(4-(3,3-dimethylureido)benzyl)-1-isopropyl-4,5,6,7-tetrahydro-1H-pyrazolo[4,3-c]pyridine-3-carboxamide]
17 | 137 | Cc1ncc2n1CCN(C(=O)c1ccc(N3CCc4c(c(C(=O)NCc5ccc(NC(=O)N(C)C)cc5)nn4C(C)C)C3)nc1)C2 [Example 382, N-(4-(3,3-dimethylureido)benzyl)-1-isopropyl-5-(5-(3-methyl-5,6,7,8-tetrahydroimidazo[1,5-a]pyrazine-7-carbonyl)pyridin-2-yl)-4,5,6,7-tetrahydro-1H-pyrazolo[4,3-c]pyridine-3-carboxamide]
18 | 49 | CC(C)n1nc(C(=O)NCc2ccc(NC(=O)N(C)C)cc2)c2c1CCN(c1ccc(C(=O)N3CCc4nocc4C3)cn1)C2 [Example 383, N-(4-(3,3-dimethylureido)benzyl)-1-isopropyl-5-(5-(4,5,6,7-tetrahydroisoxazolo[4,3-c]pyridine-5-carbonyl)pyridin-2-yl)-4,5,6,7-tetrahydro-1H-pyrazolo[4,3-c]pyridine-3-carboxamide]
19 | 4 | CC(C)n1nc(C(=O)NCc2ccc(NC(=O)N(C)C)cc2)c2c1CCN(c1ccc(C(=O)N3Cc4cn(C)nc4C3)cn1)C2 [Example 385, N-(4-(3,3-dimethylureido)benzyl)-1-isopropyl-5-(5-(2-methyl-2,4,5,6-tetrahydropyrrolo[3,4-c]pyrazole-5-carbonyl)pyridin-2-yl)-4,5,6,7-tetrahydro-1H-pyrazolo[4,3-c]pyridine-3-carboxamide]

Source: patent US20250320213A1, “Nitrogen-Containing Heterocyclic Compounds” (Pfizer Inc., priority 2024, published 2025)
